Assay results: US20240391954A1, “MC4R AGONIST PEPTIDES” (The Regents of the University of Michigan, priority 2021, published 2024)
Positions of bridges follow the written chain, without caps; N, C: chain ends. Non-standard residues stand in square brackets, D forms with d. Residues, ends and D or L forms follow the SMILES beside them. Nle = CCCC[C@H](N)C(=O)O

How the values were obtained:
[1] = target: T1, human MC3R (Homo sapiens, UniProt P41968); assay: split-luciferase cAMP sensor assay, agonist mode (measurement window 1), hMC3R; type: cell-based
T1 construct: expressed in transfected cells; host or cells: HEK-293 cells stably expressing the GScAMP22F split-luciferase cAMP sensor (parent reporter line from Promega); MC3R clone generated in-house, G418 selection
T1 sequence (P41968 whole entry): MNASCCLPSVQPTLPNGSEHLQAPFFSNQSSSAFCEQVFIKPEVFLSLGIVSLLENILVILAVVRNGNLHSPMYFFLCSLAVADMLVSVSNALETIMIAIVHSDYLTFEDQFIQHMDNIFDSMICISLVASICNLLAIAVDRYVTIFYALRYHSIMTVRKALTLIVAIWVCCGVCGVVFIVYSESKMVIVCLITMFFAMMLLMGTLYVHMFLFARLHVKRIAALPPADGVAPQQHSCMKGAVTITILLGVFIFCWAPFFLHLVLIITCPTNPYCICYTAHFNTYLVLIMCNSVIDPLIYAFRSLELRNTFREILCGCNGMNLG
In short: (§1)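 EC50 values come from a four-parameter variable-slope fit of luminescence in measurement window 1, capturing direct peptide effects on receptor-expressing cells with a cAMP22f luciferase sensor. Cells were preloaded with 4% D-luciferin, serum-free medium; 20 μM forskolin normalized for cell number and transducer efficiency.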

[2] = target: T2, human MC4R (Homo sapiens, UniProt P32245); assay: split-luciferase cAMP sensor assay, agonist mode (measurement window 1), hMC4R; type: cell-based; conditions: % maximal activation, agonist mode; read-out: MC4R cAMP % max activation
T2 construct: host or cells: HEK-293 cells stably expressing the GScAMP22F split-luciferase cAMP sensor and hMC4R, G418 selection
T2 sequence (P32245 whole entry): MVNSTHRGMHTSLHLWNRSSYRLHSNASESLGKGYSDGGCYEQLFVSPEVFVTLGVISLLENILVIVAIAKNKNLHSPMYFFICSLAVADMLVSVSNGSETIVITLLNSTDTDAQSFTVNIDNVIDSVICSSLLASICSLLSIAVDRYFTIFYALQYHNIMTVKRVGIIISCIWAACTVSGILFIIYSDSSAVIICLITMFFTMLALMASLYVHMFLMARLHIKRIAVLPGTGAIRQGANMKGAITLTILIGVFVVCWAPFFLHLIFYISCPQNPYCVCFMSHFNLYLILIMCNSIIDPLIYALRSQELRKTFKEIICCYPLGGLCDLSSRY
In short: as §1

[3] = Plasma protein binding (Centrifree ultrafiltration); type: in vitro ADME
Description: Solutions of test compound in DMSO were prepared at 1 mM, 100 uM and 10 uM, 5 ul of each solution of test compound was added to 495 uL plasma, and incubated at 25° C. for 5 min. Sample was added to a Centrifree® device, then centrifuged at 2000× g for 20 min to obtain desired filtrate volume. Initial plasma samples and ultrafiltrates were subjected to LC-MS/MS. % Free peptide=(concentration of ultrafiltrates/concentration of plasma)×100%. % Bound=100%−% Free

SMILES: CCCC[C@H](NC(=O)[C@H](CCCNC(=N)N)NC(C)=O)C(=O)N[C@H]1CSSC[C@@H](C(N)=O)NC(=O)[C@H](Cc2c[nH]c3ccccc23)NC(=O)[C@H](CCCNC(=N)N)NC(=O)[C@@H](Cc2ccccc2)NC(=O)[C@H](Cc2c[nH]cn2)NC1=O [CTX-1227, Arg-Nle-cyclo(Cys-His-D-Phe-Arg-Trp-Cys)] (Ac-R[Nle]CH[dF]RWC-NH2; disulfide 3-8 (inferred))
- Emax ([1]; % maximal activation, agonist mode, read-out: MC3R cAMP % max activation): 96%
- EC50 ([1]; HEK-293 cells stably expressing hMC3R, agonist mode, read-out: MC3R cAMP EC50): 2.8 nM
- MC4R selectivity vs MC3R ([1]; MC4R versus MC3R): 11
- Emax [2]: 103%
- fraction unbound at 5 min, 0.1 µM ([3]; 0.1 uM): 0.5
- fraction unbound at 5 min, 1 µM ([3]; 1.0 uM): 0.53
- fraction unbound at 5 min, 10 µM ([3]; 10.0 uM): 0.46
